The source of these data is patent US11814416B2, “Polypeptide capable of passing through blood-brain barrier” (SHENZHEN RUIJIAN […] COMPANY, priority 2018, dated 2023).

This assay concerns CaV2.2 channels (α1B, α2δ1 and β3). The class given is cell-based, Rat. The conditions noted are these: for IC50: read-out: half inhibitory concentration for inhibition of CaV2.2 channel.

Like-named read-outs stand apart in the source and are kept apart here.

Regarding “CKGKGAKCSRLMYDCCTGSCRSGKCGGYGRKKRRQRRR [MVIIA-c]”, the IC50 is 0.237 µM. Besides, the “reduction of the peak Ca2+ current” value (1 μM) came to 98.81±0.427%.
The corresponding values for “CKGKGAKCSRLMYDCCTGSCRSGKCGGGYGRKKRRQRRR [MVIIA-d]” are 0.345 µM and 84.26±3.127%.
As for “CKGKGAKCSRLMYDCCTGSCRSGKCGYGRKKRRQRRR [MVIIA-b]”, the “reduction of the peak Ca2+ current” value was found to be 91.70±1.477% and the IC50 amounted to 0.379 µM.
In the case of “CKGKGAKCSRLMYDCCTGSCRSGKCYGRKKRRQRRR [MVIIA-a]”, the IC50 was found to be 0.413 µM. In addition, the “reduction of the peak Ca2+ current” value (1 μM) is 89.45±0.752%.
